{"source": "PubChem BioAssay (NCI)", "experiment_in_all_cases": "NCI tumour cell line growth inhibition, 48 h", "key": {"[1]": {"system": "SNB-19 CNS"}, "[2]": {"system": "A498 renal"}, "[3]": {"system": "HOP-62 NSCLC"}, "[4]": {"system": "CAKI-1 renal"}, "[5]": {"system": "U251 CNS"}, "[6]": {"system": "UACC-62 melanoma"}, "[7]": {"system": "MOLT-4 leukemia"}, "[8]": {"system": "TK-10 renal"}, "[9]": {"system": "SK-MEL-2 melanoma"}, "[10]": {"system": "EKVX NSCLC"}, "[11]": {"system": "PC-3 prostate"}, "[12]": {"system": "NCI/ADR-RES ovarian"}, "[13]": {"system": "SK-OV-3 ovarian"}, "[14]": {"system": "786-0 renal"}, "[15]": {"system": "COLO 205 colon"}, "[16]": {"system": "SR leukemia"}, "[17]": {"system": "HCT-15 colon"}, "[18]": {"system": "KM12 colon"}, "[19]": {"system": "RXF 393 renal"}, "[20]": {"system": "OVCAR-8 ovarian"}, "[21]": {"system": "MDA-MB-231 breast"}, "[22]": {"system": "K-562 leukemia"}, "[23]": {"system": "CCRF-CEM leukemia"}, "[24]": {"system": "M14 melanoma"}, "[25]": {"system": "SF-295 CNS"}, "[26]": {"system": "MCF7 breast"}, "[27]": {"system": "HCT-116 colon"}}, "note": "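These data come from cells grown in 96-well plates and exposed to compound for 48 hours at five concentrations. At the GI50, growth is halved. TGI denotes the concentration required for complete inhibition of growth.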", "data": [{"smiles": "COc1ccc(CCN2CCCN3C2=Nc2ccccc2S3(=O)=O)cc1", "values": [{"measurement": "GI50", "setting": "[1]", "value": 882, "unit": "nM"}, {"measurement": "TGI", "setting": "[1]", "value": "> 100000", "unit": "nM"}, {"measurement": "GI50", "setting": "[2]", "value": 195, "unit": "nM"}, {"measurement": "TGI", "setting": "[2]", "value": 3200, "unit": "nM"}, {"measurement": "GI50", "setting": "[3]", "value": 556, "unit": "nM"}, {"measurement": "TGI", "setting": "[3]", "value": "> 100000", "unit": "nM"}, {"measurement": "GI50", "setting": "[4]", "value": 730, "unit": "nM"}, {"measurement": "TGI", "setting": "[4]", "value": "> 100000", "unit": "nM"}, {"measurement": "GI50", "setting": "[5]", "value": 388, "unit": "nM"}, {"measurement": "TGI", "setting": "[5]", "value": "> 100000", "unit": "nM"}, {"measurement": "GI50", "setting": "[6]", "value": 744, "unit": "nM"}, {"measurement": "TGI", "setting": "[6]", "value": "> 100000", "unit": "nM"}, {"measurement": "GI50", "setting": "[7]", "value": 464, "unit": "nM"}, {"measurement": "TGI", "setting": "[7]", "value": "> 100000", "unit": "nM"}, {"measurement": "GI50", "setting": "[8]", "value": 91000, "unit": "nM"}, {"measurement": "TGI", "setting": "[8]", "value": "> 100000", "unit": "nM"}, {"measurement": "GI50", "setting": "[9]", "value": 521, "unit": "nM"}, {"measurement": "TGI", "setting": "[9]", "value": "> 100000", "unit": "nM"}, {"measurement": "GI50", "setting": "[10]", "value": 18800, "unit": "nM"}, {"measurement": "TGI", "setting": "[10]", "value": "> 100000", "unit": "nM"}, {"measurement": "GI50", "setting": "[11]", "value": 529, "unit": "nM"}, {"measurement": "TGI", "setting": "[11]", "value": "> 100000", "unit": "nM"}, {"measurement": "GI50", "setting": "[12]", "value": 300, "unit": "nM"}, {"measurement": "TGI", "setting": "[12]", "value": 6800, "unit": "nM"}, {"measurement": "GI50", "setting": "[13]", "value": 552, "unit": "nM"}, {"measurement": "TGI", "setting": "[13]", "value": "> 100000", "unit": "nM"}, {"measurement": "GI50", "setting": "[14]", "value": 651, "unit": "nM"}, {"measurement": "TGI", "setting": "[14]", "value": "> 100000", "unit": "nM"}, {"measurement": "GI50", "setting": "[15]", "value": 329, "unit": "nM"}, {"measurement": "TGI", "setting": "[15]", "value": 1480, "unit": "nM"}, {"measurement": "GI50", "setting": "[16]", "value": 193, "unit": "nM"}, {"measurement": "TGI", "setting": "[16]", "value": "> 100000", "unit": "nM"}, {"measurement": "GI50", "setting": "[17]", "value": 342, "unit": "nM"}, {"measurement": "TGI", "setting": "[17]", "value": "> 100000", "unit": "nM"}, {"measurement": "GI50", "setting": "[18]", "value": 451, "unit": "nM"}, {"measurement": "TGI", "setting": "[18]", "value": "> 100000", "unit": "nM"}, {"measurement": "GI50", "setting": "[19]", "value": 622, "unit": "nM"}, {"measurement": "TGI", "setting": "[19]", "value": "> 100000", "unit": "nM"}, {"measurement": "GI50", "setting": "[20]", "value": 802, "unit": "nM"}, {"measurement": "TGI", "setting": "[20]", "value": "> 100000", "unit": "nM"}, {"measurement": "GI50", "setting": "[21]", "value": 1680, "unit": "nM"}, {"measurement": "TGI", "setting": "[21]", "value": "> 100000", "unit": "nM"}, {"measurement": "GI50", "setting": "[22]", "value": 196, "unit": "nM"}, {"measurement": "TGI", "setting": "[22]", "value": "> 100000", "unit": "nM"}, {"measurement": "GI50", "setting": "[23]", "value": 444, "unit": "nM"}, {"measurement": "TGI", "setting": "[23]", "value": "> 100000", "unit": "nM"}, {"measurement": "GI50", "setting": "[24]", "value": 322, "unit": "nM"}, {"measurement": "TGI", "setting": "[24]", "value": "> 100000", "unit": "nM"}, {"measurement": "GI50", "setting": "[25]", "value": 389, "unit": "nM"}, {"measurement": "TGI", "setting": "[25]", "value": "> 100000", "unit": "nM"}, {"measurement": "GI50", "setting": "[26]", "value": 329, "unit": "nM"}, {"measurement": "TGI", "setting": "[26]", "value": "> 100000", "unit": "nM"}, {"measurement": "GI50", "setting": "[27]", "value": 444, "unit": "nM"}]}]}
